Data: patent publication US8119563B2, “N-substituted azacycles” (FMC Corporation, priority 2003, dated 2012)

Test system: tobacco budworm (Heliothis virescens [Fabricius])
Experiment: surface-treated diet test, insecticidal activity against tobacco budworm
Assay type: in vivo
Conditions: 0.25 millimoles of candidate insecticide on the surface of the diet, second instar larvae, five-day exposure; for Percent Mortality: compared to total number of insects infested; for Percent Growth Inhibition: inhibition of insect weight relative to untreated controls
How it was run: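 Wheat germ artificial diet surface-treated with compound from 50 mM DMSO stock diluted 1:7 in 1:1 water/acetone (0.25 millimolar on diet), or lower-rate dilutions; DMSO-only controls. One second-instar larva per well, 25° C, 60% RH, 14 h light, five days; percent weight inhibition versus untreated and percent mortality scored.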

Structure (SMILES)	Percent Mortality	Percent Growth Inhibition
Cc1cc(C(c2ccc(OC(F)(F)F)cc2)C2(O)CCN(Cc3ccc(Oc4ccccn4)cc3)CC2)ccc1Cl (stereo not shown) [Compound 435]	100%	100%
Cc1cc(Cl)ccc1C(c1ccc(OC(F)(F)F)cc1)C1(O)CCN(Cc2ccc(Oc3ccccn3)cc2)CC1 (stereo not shown) [Compound 436]	100%	100%
OC1(C(c2ccc(OC(F)(F)F)cc2)c2ccccc2Cl)CCN(Cc2ccc(Oc3ccccn3)cc2)CC1 (stereo not shown) [Compound 437]	100%	100%
OC1(C(c2ccc(OC(F)(F)F)cc2)c2cccc(Cl)c2Cl)CCN(Cc2ccc(Oc3ccccn3)cc2)CC1 (stereo not shown) [Compound 438]	100%	100%
OC1(C(c2ccc(OC(F)(F)F)cc2)c2cccc(Cl)c2)CCN(Cc2ccc(Oc3ccccn3)cc2)CC1 (stereo not shown) [Compound 439]	100%	100%
CCON=Cc1ccc(C(c2ccc(OC(F)(F)F)cc2)C2(O)CCN(Cc3ccc(Oc4ccccn4)cc3)CC2)cc1 (stereo not shown) [Compound 440]	100%	100%
OC1(C(c2ccc(OC(F)(F)F)cc2)c2ccc(Cl)c(Cl)c2)CCN(Cc2ccc(Oc3ccccn3)cc2)CC1 (stereo not shown) [Compound 441]	100%	100%
OC1(C(c2ccc(OC(F)(F)F)cc2)c2cc(Cl)cc(Cl)c2)CCN(Cc2ccc(Oc3ccccn3)cc2)CC1 (stereo not shown) [Compound 442]	100%	100%
OC1(C(c2ccc(OC(F)(F)F)cc2)c2cc(Cl)ccc2Cl)CCN(Cc2ccc(Oc3ccccn3)cc2)CC1 (stereo not shown) [Compound 443]	100%	100%
CCON=Cc1ccc(CN2CCC(O)(C(c3ccc(OC(F)(F)F)cc3)c3ccc(Cl)cc3Cl)CC2)cc1 (stereo not shown) [Compound 444]	100%	100%
OC1(C(c2ccc(OC(F)(F)F)cc2)c2ccc(Cl)cc2F)CCN(Cc2ccc(Oc3ccccn3)cc2)CC1 (stereo not shown) [Compound 445]	100%	100%
OC1(C(c2ccc3c(c2)OC(F)(F)O3)c2ccc3c(c2)OC(F)(F)O3)CCN(Cc2ccc(Oc3ccccn3)cc2)CC1 [Compound 446]	100%	100%
COc1cc(CN2CCC(O)(C(c3ccc(OC(F)(F)F)cc3)c3ccc(OC(F)(F)F)cc3)CC2)ccc1Oc1ccccn1 [Compound 447]	100%	100%
OCC1(C(c2ccc(C(F)(F)F)cc2)c2ccc(C(F)(F)F)cc2)CCN(Cc2ccc(Oc3ncccn3)cc2)CC1 [Compound 448]	0%	96%
[N-]=[N+]=NCC1(C(c2ccc(C(F)(F)F)cc2)c2ccc(C(F)(F)F)cc2)CCN(Cc2ccc(OCC3CC3)cc2)CC1 [Compound 449]	0%	78%
NCC1(C(c2ccc(C(F)(F)F)cc2)c2ccc(C(F)(F)F)cc2)CCN(Cc2ccc(OCC3CC3)cc2)CC1 [Compound 450]	50%	100%
CC(=O)NCC1(C(c2ccc(C(F)(F)F)cc2)c2ccc(C(F)(F)F)cc2)CCN(Cc2ccc(Oc3ncccn3)cc2)CC1 [Compound 451]	0%	100%
CC(=O)OCC1(C(c2ccc(C(F)(F)F)cc2)c2ccc(C(F)(F)F)cc2)CCN(Cc2ccc(Oc3ncccn3)cc2)CC1 [Compound 452]	0%	100%
CCON=Cc1ccc(C[N+]2([O-])CCC(O)(C(c3ccc(OC(F)(F)F)cc3)c3ccc(Cl)cc3Cl)CC2)cc1 (stereo not shown) [Compound 453]	100%	100%
[O-][N+]1(Cc2ccc(Oc3ccccn3)cc2)CCC(O)(C(c2ccc(OC(F)(F)F)cc2)c2ccc(Cl)cc2Cl)CC1 (stereo not shown) [Compound 454]	100%	100%
